Measured values published in article PMC9323733, “Efficacy of Vafidemstat in Experimental Autoimmune Encephalomyelitis Highlights the KDM1A/RCOR1/HDAC Epigenetic Axis in Multiple Sclerosis” (Pharmaceutics, 2022).

Columns and labels:
[1] = tested on: spinal cord and brain of EAE mice; experiment: qRT-PCR validation of microarray biomarkers, spinal cord and brain of EAE mice; format: in vivo, mouse
Method: We evaluated differences in gene expression induced by the treatment using real-time PCR and by microarray hybridization analysis. First, total RNA was isolated from brain and spinal cord segments from EAE mice using Qiazol™ and the RNeasy MiniKit™ extraction kit (Qiagen). Evaluation of RNA quality was performed with the Agilent 2100 bioanalyzer and NanoDrop™ ND-1000 (Thermo Scientific, Dartford, Kent, UK). After DNAse I treatment, RNA (1 µg/sample) was reverse transcribed using RevertAid First strand cDNA Synthesis kit (Fermentas) and random hexamer primers. For evaluating the expression of the inflammatory markers TNFα, IL-1β, IP10, IL-4, and CCL5, real time PCR was performed by using iQ SYBR Green Supermix (Bio-Rad, Feldkirchen, Germany) according to manufacturer’s instructions in a BIORAD CFX96 thermal cycler. Primer sequences and PCR conditions are indicated in Supplementary Materials Table S3. […]
For the gene expression studies, data from microarray assays were normalized by modified nonlinear Q-splines normalization method and Log2(Sample/Vehicle) values calculated without background correction (which permits robust selection of differentially expressed genes yet may lead to sub-estimation of the magnitude of change for genes expressed near the detection limit). Differential expression was assessed with the proprietary Polyphemus software using robust statistics on the average technical replicates (3 replicates/gene oligo datapoint) after removing eventual outlier points (caused by dust or array imperfections). […] The p values were calculated after outlier elimination based on the absolute value of the regularized t-statistics, which uses a Bayesian framework to derive the algorithm, using internal replicated controls to assess the minimum technical variability of the process. Correlation between gene expression changes induced by different treatments was analysed by calculating the Pearson correlation coefficient r using the Log2(Treatment/Veh) values for all genes expressed above background level (n). […]

[2] = tested on: lymphocytes; experiment: GLP toxicological studies, lymphocyte count, rats; format: in vivo, Wistar rats; settings: mean ± SD
From the text: T r eat m e nt N Ly m p h o c y te s Equivalent m ou se d o se
( mg /k g p. o. ga va g e) (109/ L ) ( mg /k g p.o ga va ge)
6 m ont h s W i sta r r at s
9 m ont h s Be ag le d og s
Eff ec t of t r ea t me nt wi t h O RY-2 00 1 a d mi ni st e r e d by or al ga va ge o n l y m ph oc yt e s ob se r ve d i n G LP
t ox i c ol ogi c a l st udi e s i n r at a nd do g. A ni ma l s we r e t re a t e d or al l y (fi ve c o ns e c ut i ve da ys/ we e k) by ga va ge
28 da ys or 6 mo nt hs ( ra t s) a nd 28 da ys or 9 mo nt hs (dogs). Data re prese nt de me a n ± S D. T he e q ui va l e n t
dos e i n m o use i s i n di c at e d. 1-wa y A N OV A a n d D u n ne t t’ s M ul ti pl e C o m pa ri so n t e st wa s use d.

## Nc1nnc(CN[C@@H]2C[C@H]2c2ccc(OCc3ccccc3)cc2)o1 [ORY-2001]
[1]; increased pooled value came from a single outlier sample
  Ttr upregulation in spinal cord, check by qRT-PCR: discarded as a biomarker
[1]; spinal cord and brain, effector phase
  expression of Saa3, Aif1 and Gbp2 (qRT-PCR): downregulated the inflammatory biomarkers Saa3, Aif1 and Gbp2
[1]; spinal cord and brain, sub-chronic period
  expression of Ccl5, Ip10 and Tnf-alpha (qRT-PCR): downregulated
[2]; 6 months Wistar rats, 0.07 mg/kg p.o. gavage (equivalent mouse dose 0.14)
  Lymphocytes: 3.25 ± 0.75 109/L
[2]; 6 months Wistar rats, 0.20 mg/kg p.o. gavage (equivalent mouse dose 0.40)
  Lymphocytes: 4.02 ± 0.99 109/L
[2]; 6 months Wistar rats, 0.40 mg/kg p.o. gavage (equivalent mouse dose 0.80)
  Lymphocytes: 3.72 ± 1.12 109/L
[2]; 28 d Wistar rats, 0.07 mg/kg p.o. gavage (equivalent mouse dose 0.14)
  Lymphocytes: 3.65 ± 1.39 109/L
[2]; 28 d Wistar rats, 0.20 mg/kg p.o. gavage (equivalent mouse dose 0.40)
  Lymphocytes: 3.44 ± 0.62 109/L
[2]; 28 d Wistar rats, 0.60 mg/kg p.o. gavage (equivalent mouse dose 1.20)
  Lymphocytes: 3.89 ± 1.14 109/L
